The text below walks through data of patent US20220146526A1, “METHOD FOR EVALUATING SAMPLE, ANALYSIS METHOD, METHOD FOR DETECTING DEGRADED SAMPLE, MARKER FOR DETECTING DEGRADED BLOOD PLASMA SAMPLE, AND MARKER FOR DETECTING DEGRADED SERUM SAMPLE” (SHIMADZU CORPORATION, priority 2019, published 2022).

Format in all cases: physicochemical, human
The nature of data set [1]: GC/MS of blood plasma sample: number of times of freezing and thawing (Table C). Conditions: for Increase or decrease: detection intensity; for Rate of increase or decrease (second value, decrease) / Rate of increase or decrease (first value, increase): different from individual to individual, relative to 1 at 2 times; for Rate of increase or decrease (second value, decrease): individuals with decrease; for Rate of increase or decrease (first value, increase): individuals with increase; for Rate of increase or decrease: detection intensity relative to 1 at 2 times. As to the method:
(§1) At room temperature, 5 mL of blood from a healthy subject was taken into a blood-collecting vessel containing EDTA, and the blood-collecting vessel was inverted for mixing, then cooled, and allowed to stand at 4° C. Here, in order to investigate how the detection intensity of molecules contained in the sample was affected in a case where the time to cooling was set to 5 minutes or more as compared to that in a case where the time to cooling was set to 1 minute or less, preparations were performed under both the former condition and the latter condition. After standing, the blood sample was subjected to centrifugation under a condition of 4° C., 3000 rpm, and 15 minutes. […] After centrifugation, the blood-collecting vessel was left to stand at room temperature for 30 minutes, and the blood plasma was isolated during this 30 minutes. The obtained blood plasma sample was frozen and stored. Here, in order to investigate how the detection intensity of molecules contained in the sample was affected in cases where freezing and thawing was performed 4 times, 6 times, and 10 times after freezing as compared to that in a case where freezing and thawing was performed 2 times after freezing, freezing and thawing was performed under the respective conditions of 2, 4, 6, and 10 times.
(§2) Frozen blood plasma samples and serum samples were subjected to GC/MS or LC/MS. In GC/MS, the blood plasma samples and serum samples were subjected to methoxymation and trimethylsilylation and then introduced to GC-MS.
(§3) GC/MS was conducted using GCMS·TQ8040 (Shimadzu Corporation) that was a GC·MS equipped with AOC·20i (Shimadzu Corporation) as an autosampler.
(§4) Column: BPX5 (inner diameter of 0.25 mm, length of 30 m, and film thickness of 0.25 μm) (SGE)
(§5) Column temperature: maintained at 60° C. for 2 minutes, then raised at 15° C./min, and maintained at 330° C. for 3 minutes.
(§6) Inlet temperature: 250° C.
(§7) Carrier gas control mode: constant linear velocity of 39.0 cm/sec
(§8) Sample introduction method: split (split ratio of 30:1) Injection volume: 1 μL
(§9) Ionization method: electron ionization
(§10) Ionization current: 60 μA
(§11) Interface temperature: 280° C.
(§12) Ion source temperature: 200° C.
(§13) Mode: multiple reaction monitoring (MRM)
The rate of increase or decrease in Table C is the value of detection intensity relative to 1 that is the detection intensity in a case where the number of times of freezing and thawing is set to 2 times.

The nature of data set [2]: GC/MS of blood plasma sample: time from blood collection to cooling of blood (Table B). The arrangement: key to Rate of increase or decrease / Rate of increase or decrease (first value, increase): detection intensity relative to 1 at cooling time ≤1 min. Conditions: for Rate of increase or decrease: detection intensity relative to 1 at 1 minute or less, blood collection to cooling 5 minutes; for Increase or decrease: detection intensity, blood collection to cooling 5 minutes or more vs 1 minute or less. How it is done: as §1, §2, §3, §4, §5, §6, §7, §8, §9, §10, §11, §12, §13
Table B presents compounds of which the detection intensity increased or decreased by 30% or more in a case where the time from blood collection to cooling of blood, when a blood plasma sample was analyzed by GC/MS, was set to 5 minutes or more as compared to that in a case where the time was set to 1 minute or less. The rate of increase or decrease in Table B is the value of detection intensity relative to 1 that is the detection intensity in a case where the time from blood collection to cooling is set to 1 minute or less.

Data set [3] is described as follows: GC/MS of blood plasma sample: time from blood collection to centrifugation (Table A). Conditions: for Rate of increase or decrease: detection intensity relative to 1 at 15 minutes; for Rate of increase or decrease / Increase or decrease: blood collection to centrifugation; for Increase or decrease: detection intensity; for Rate of increase or decrease (second value, decrease) / Rate of increase or decrease (first value, increase): different from individual to individual, relative to 1 at 15 minutes, collection to centrifugation; for Rate of increase or decrease (second value, decrease): individuals with decrease; for Rate of increase or decrease (first value, increase): individuals with increase. The essentials: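 EDTA blood from a healthy subject was cooled at 4° C, centrifuged at 4° C, 3000 rpm, 15 minutes, and plasma was frozen. After methoxymation and trimethylsilylation, samples ran on GC/MS (BPX5 column, 60-330° C gradient, electron ionization, MRM). Intensity is relative to 15 minutes from collection to centrifugation.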

Data set [4] is described as follows: GC/MS of serum sample: time from blood collection to centrifugation (Table G). As to conditions: blood collection to centrifugation; for Rate of increase or decrease: detection intensity relative to 1 at 15 minutes; for Increase or decrease: detection intensity. The essentials:
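Blood was held for varying times before centrifugation (room temperature, 3500 rpm, 5 min); serum was frozen, then methoxymated and trimethylsilylated for GC/MS with electron ionization in MRM mode. Values are detection intensities relative to the 15-minute collection-to-centrifugation condition, set as 1.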

Data set [5] in a line: GC/MS of serum sample: time from centrifugation to isolation (Table H). As to conditions: for Increase or decrease: detection intensity. The arrangement: key to Rate of increase or decrease / Rate of increase or decrease (first value, increase): detection intensity relative to 1 at 30 min centrifugation-to-isolation. Put shortly:
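Blood was centrifuged at room temperature, 3500 rpm, 5 min, and the vessel left at room temperature for 30 min, 1 h or 6 h before serum isolation. Serum was methoxymated, trimethylsilylated and analysed by GC/MS with electron ionization in MRM mode; intensities expressed relative to the 30-min condition (=1).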

Data set [6] is described as follows: GC/MS of serum sample: number of times of freezing and thawing (Table I). Details: key to Rate of increase or decrease / Rate of increase or decrease (first value, increase): detection intensity relative to 2 freeze-thaw cycles = 1. As to conditions: for Rate of increase or decrease: detection intensity relative to 1 at 2 times. Put shortly: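 Serum was isolated after centrifugation at room temperature (3500 rpm, 5 min), frozen, and put through 2, 4, 6 or 10 freeze–thaw cycles. Samples were methoxymated and trimethylsilylated, then run by electron-ionization GC/MS in MRM mode on a BPX5 column (60 to 330 °C). Detection intensity is given relative to the 2-cycle sample, set as 1.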

Where [7] appears, read: freezing and thawing 6 times vs 2 times.
The mark [8] stands for this setting: freezing and thawing 4 times vs 2 times.
[9] abbreviates: serum, GC/MS, freezing and thawing 4 times.
[10] abbreviates: detection intensity, serum, GC/MS, freezing and thawing 4 times vs 2 times.

Regarding `O=c1ccn([C@H]2C[C@H](O)[C@@H](CO)O2)c(=O)[nH]1` [2′-Deoxyuridine], the Increase or decrease result in data set [1] (setting [7]) was “Different from individual”; in data set [2], “Decrease”; in data set [3] (after 12 hours vs 15 minutes) it was “Increase”. The “Rate of increase or decrease (second value, decrease)” value in data set [1] (freezing and thawing 6 times) came to 0.67. Moreover, the “Rate of increase or decrease (first value, increase)” value in data set [1] (freezing and thawing 6 times) worked out at 1.43. Besides, the figures for the “Rate of increase or decrease” value in data set [2] and in data set [3] (after 12 hours) were 0.68 and 1.43, respectively.

As for `O=P(O)(O)OCC(O)CO` (stereo not drawn) [Glycerol-3-phosphate], the “Rate of increase or decrease” value in data set [1] (freezing and thawing 6 times) came out at 0.41; in data set [4] (after 4 hours), 1.39. Besides, the Increase or decrease result in data set [1] (setting [7]) is “Decrease”; in data set [4] (after 4 hours vs 15 minutes) it was “Increase”; in data set [2], “Increase”; in data set [3] (after 4 hours vs 15 minutes), “Different from individual”. Further, the “Rate of increase or decrease (second value, decrease)” value in data set [3] (after 4 hours) is 0.32. Moreover, the “Rate of increase or decrease (first value, increase)” value in data set [3] (after 4 hours) worked out at 4.90.

For the compound `NCCc1c[nH]cn1` [Histamine], the “Rate of increase or decrease” value worked out at 1.63 in data set [1] (freezing and thawing 10 times); 0.67 in data set [2]; 1.78 in data set [3] (after 4 hours). Besides, the Increase or decrease entry in data set [1] (freezing and thawing 10 times vs 2 times) was “Increase”; in data set [2], “Decrease”; in data set [3] (after 4 hours vs 15 minutes), “Increase”.

`Oc1ccc(O)cc1` [Hydroquinone]: the Increase or decrease result is listed as “Different from individual” in data set [1] (setting [8]), “Decrease” in data set [2] and “Increase” in data set [3] (after 4 hours vs 15 minutes). In data set [1] (freezing and thawing 4 times), the “Rate of increase or decrease (second value, decrease)” value amounted to 0.69. Besides, the “Rate of increase or decrease (first value, increase)” value in data set [1] (freezing and thawing 4 times) is 3.54. The “Rate of increase or decrease” value in data set [2] stood at 0.66; in data set [3] (after 4 hours), 17.48.

Turning to `CS(=O)(=O)CC[C@H](N)C(=O)O` [Methionine sulfone], the “Rate of increase or decrease” value in data set [1] (freezing and thawing 4 times) came out at 1.77; in data set [2], 0.70; in data set [3] (after 4 hours), 4.98. Moreover, the Increase or decrease result is on record as “Increase” in data set [1] (setting [8]), “Decrease” in data set [2] and “Increase” in data set [3] (after 4 hours vs 15 minutes).

In the case of `CC(=O)NCCCC[C@H](N)C(=O)O` [N6-acetyllysine], the “Rate of increase or decrease” value came out at 0.57 in data set [1] (freezing and thawing 6 times); 1.55 in data set [4] (after 4 hours); 0.61 in data set [2]; 0.67 in data set [6] (setting [9]). The Increase or decrease entry was “Decrease” in data set [1] (setting [7]); “Different from individual” in data set [5] (after 6 hours vs 30 minutes); “Increase” in data set [4] (after 4 hours vs 15 minutes); “Decrease” in data set [2]; “Decrease” in data set [6] (setting [10]). Besides, the “Rate of increase or decrease (second value, decrease)” value in data set [5] (different from individual to individual, individuals with decrease, relative to 1 at 30 minutes, after 6 hours) turned out to be 0.58. For the same compound, in data set [5] (different from individual to individual, individuals with increase, relative to 1 at 30 minutes, after 6 hours), the “Rate of increase or decrease (first value, increase)” value is on record as 1.71.

On to `O=C(O)c1cccnc1C(=O)O` [Quinolinic acid], for which the Increase or decrease entry in data set [1] (setting [8]) is recorded as “Different from individual”; in data set [2], “Different from individual”; in data set [3] (after 4 hours vs 15 minutes), “Increase”. The “Rate of increase or decrease (second value, decrease)” value in data set [1] (freezing and thawing 4 times) is 0.68; in data set [2] (different from individual to individual, individuals with decrease, relative to 1 at 1 minute or less, collection to cooling 5 minutes), 0.41. In addition, the “Rate of increase or decrease (first value, increase)” value in data set [1] (freezing and thawing 4 times) is 1.70; in data set [2] (different from individual to individual, individuals with increase, relative to 1 at 1 minute or less, collection to cooling 5 minutes), 1.67. In addition, the “Rate of increase or decrease” value in data set [3] (after 4 hours) turned out to be 2.24.

For `O=C[C@H](O)[C@H](O)[C@H](O)CO` [Ribose], the Increase or decrease entry in data set [1] (setting [7]) is “Different from individual”; in data set [5] (after 1 hour vs 30 minutes), “Increase”; in data set [4] (after 4 hours vs 15 minutes) it was “Decrease”; in data set [2], “Increase”; in data set [6] (setting [10]), “Increase”. Moreover, in data set [1] (freezing and thawing 6 times), the “Rate of increase or decrease (second value, decrease)” value stood at 0.70. In data set [1] (freezing and thawing 6 times), the “Rate of increase or decrease (first value, increase)” value turned out to be 1.39. Also, the “Rate of increase or decrease” value in data set [5] (detection intensity relative to 1 at 30 minutes, after 1 hour) was determined as 1.76; in data set [4] (after 4 hours), 0.41; in data set [6] (setting [9]) it was 1.68.

`O=C(CO)[C@H](O)[C@H](O)CO` [Ribulose]: the “Rate of increase or decrease” value turned out to be 1.38 in data set [1] (freezing and thawing 4 times); 1.72 in data set [4] (after 8 hours); 1.96 in data set [2]; 0.68 in data set [6] (10 times of freezing and thawing). Also, the Increase or decrease entry in data set [1] (setting [8]) is “Increase”; in data set [4] (after 8 hours vs 15 minutes), “Increase”; in data set [2] it was “Increase”; in data set [6] (serum sample, GC/MS, detection intensity vs 2 times of freezing and thawing), “Decrease”; in data set [3] (after 4 hours vs 15 minutes) it was “Different from individual”. In addition, the “Number of times when compound is affected” value in data set [6] (serum sample, GC/MS, detection intensity changed by 30% or more vs 2 times of freezing and thawing) is listed as 10 times. The “Rate of increase or decrease (second value, decrease)” value in data set [3] (after 4 hours) is 0.66. In addition, the “Rate of increase or decrease (first value, increase)” value in data set [3] (after 4 hours) worked out at 4.41.
